What all share (format): in vivo
Test [1] relates to Eclipta alba. Briefly: Greenhouse pot test, pre-emergence soil treatment, visual control effect 30 days after treatment, Gowing method.
Test [2] concerns Bristlegrass. The test is described as above. Here is the method:
In the present application, indoor combined action of the compound of herbicide active component A and B on weeds was measured to determine the combined effect of the composition on weeds, wherein the structure of the active component A was as follows:
The weed cultivation method was as follows: quantitative weed seeds abutilon and bristlegrass were respectively sown in a paper cup filled with nutrient soil with a diameter of 7 cm, and then cultivated in the greenhouse after covering the soil, suppressing and watering. The post-emergence stem and leaf treatment was performed when the grass weeds grew to 5-7 leaf stage, broad-leaved weeds grew to 6-8 leaf stage; the pre-emergence soil treatment was performed the second day after sowing, and the early post-emergence treatment was performed after sowing and before emergence; the experiment was repeated 3 times. After the treatment and drug solution naturally dried, the weeds were placed in the greenhouse to be managed according to conventional methods. According to the suppression or death of the weeds, a visual control effect investigation was conducted 30 days after the treatment. The application adopted the Gowing method to evaluate the combined effect of the proposed composition.
(§1) X—Weed control effect when the amount of herbicide component A is P;
(§2) Y—Weed control effect when the amount of herbicide component B is Q;
(§3) E0—Theoretical control effect when the amount of herbicide component A is […];
(§4) E—The measured control effect after the herbicide component A and the herbicide component B are mixed according to the above ratio.
(§5) When E−E0>10%, it is synergism; when E−E0<−10%, it is antagonism; when E−E0 value is between ±10%, it is addition.

The test system of test [3] is Horseweed herb (collected from Shenyang, Liaoning). The test can be described thus: Example 13 combined effect on weeds, Gowing method. The method, then:
(§6) The weed cultivation and test material cultivation method was as follows: quantitative weed seeds abutilon and bristlegrass were respectively sown in a paper cup filled with nutrient soil with a diameter of 7 cm, and then cultivated in the greenhouse after covering the soil, suppressing and watering. The stem and leaf spray treatment was performed when the grass weeds grew to 5-7 leaf stage, and broad-leaved weeds grew to 6-8 leaf stage; the tests were repeated for 3 times. the treatment and drug solution naturally dried, the weeds were placed in the greenhouse to be managed according to conventional methods. According to the suppression or death of the weeds, a visual control effect investigation was conducted 30 days after the treatment.
(§7) The application adopted the Gowing method to evaluate the combined effect of the proposed composition.
as §1, §2, §3, §4, §5
(§8) The test targets were horseweed herb collected from Shenyang, Liaoning and goosegrass collected from Zhengzhou, Henan.

Test [4] has as its system goosegrass (collected from Zhengzhou, Henan). The test can be described thus: Example 13 combined effect on weeds, Gowing method. Here is the method: as §6, §7, §1, §2, §3, §4, §5, §8
Test [5] relates to Abutilon. The test can be described thus: Example 15 indoor pot planting, death rate / herbicidal speed, weeds in 6-leaf stage. The method, then:
(§9) The death rate of weeds after application of the herbicidal composition of the present application was measured and compared with the herbicidal rate when a single component was used. The test used the method of indoor pot planting. At the time of treatment, abutilon and barnyardgrass were in 6-leaf stage.

Test [6] deals with Echinochloacrusgalli. The test is described as above. The method, then: as §9
Test [7] relates to Abutilon. Briefly: Example 12 indoor pot experiment, stem and leaf spray, visual control effect 30 days after treatment, Gowing method. Here is the method: (§10) The combined effect of the composition on the weeds was clarified by the indoor pot experiment.
as §6, §7, §1, §2, §3, §4, §5

Test [8] has as its system Bristlegrass. Described as above. Here is the method: as §10, §6, §7, §1, §2, §3, §4, §5
Setting [9] is: Example 13 Table 2, dose 37.5 ga.i./hm^2.
Setting [10] is: Example 13 Table 2, dose 75 ga.i./hm^2.
Setting [11] is: Example 13 Table 2, dose 150 ga.i./hm^2.
Setting [12] is: Example 13 Table 2, dose 300 ga.i./hm^2.
Setting [13] is: Table 11, 7 days after treatment, dose 50 ga.i./hm^2.
Where [14] appears, read: Table 11, 7 days after treatment, dose 100 ga.i./hm^2.
[15] abbreviates: Table 11, 7 days after treatment, dose 200 ga.i./hm^2.
The mark [16] stands for this setting: Table 11, 7 days after treatment, dose 400 ga.i./hm^2.
Where [17] appears, read: Table 11, 15 days after treatment, dose 50 ga.i./hm^2.
Setting [18] is: Table 11, 15 days after treatment, dose 100 ga.i./hm^2.
Where [19] appears, read: Table 11, 15 days after treatment, dose 200 ga.i./hm^2.
[20] abbreviates: Table 11, 15 days after treatment, dose 400 ga.i./hm^2.
Where [21] appears, read: Table 11, 30 days after treatment, dose 50 ga.i./hm^2.
Where [22] appears, read: Table 11, 30 days after treatment, dose 100 ga.i./hm^2.
The mark [23] stands for this setting: Table 11, 30 days after treatment, dose 200 ga.i./hm^2.
Where [24] appears, read: Table 11, 30 days after treatment, dose 400 ga.i./hm^2.
Setting [25] is: Example 12 Table 1, dose 37.5 ga.i./hm^2.
Where [26] appears, read: Example 12 Table 1, dose 75 ga.i./hm^2.
[27] abbreviates: Example 12 Table 1, dose 150 ga.i./hm^2.
Where [28] appears, read: Example 12 Table 1, dose 300 ga.i./hm^2.

`CCCCOCN(C(=O)CCl)c1c(CC)cccc1CC` [Butachlor]: the “Measured value E” value stood at 15% in test [1] (Table 3, dose 75 ga.i./hm^2); 25% in test [1] (Table 3, dose 150 ga.i./hm^2); 45% in test [2] (Table 3, dose 75 ga.i./hm^2); 60% in test [2] (Table 3, dose 150 ga.i./hm^2).
In the case of `CC(C)N.O=C(O)CNCP(=O)(O)O` [Glyphosate isopropylamine], the “Measured value E” value in test [3] (setting [9]) is reported as 25%; in test [3] (setting [10]), 35%; in test [3] (setting [11]), 65%; in test [3] (setting [12]), 70%; in test [4] (setting [9]), 5%; in test [4] (setting [10]), 25%. Moreover, the “Measured value E” value in test [4] (setting [11]) is listed as 50%; in test [4] (setting [12]), 65%; in test [7] (setting [25]), 10%; in test [7] (setting [26]), 20%; in test [7] (setting [27]), 50%; in test [7] (setting [28]), 65%. Also, the “Measured value E” value in test [8] (setting [25]) turned out to be 0%; in test [8] (setting [26]) it was 15%; in test [8] (setting [27]), 30%; in test [8] (setting [28]) it was 45%. The “Control effect (visual observation %)” value in test [5] (setting [13]) came to 5.8%; in test [5] (setting [14]), 16.2%; in test [5] (setting [15]), 24.6%; in test [5] (setting [16]), 43.5%; in test [5] (setting [17]), 9.0%; in test [5] (setting [18]), 26.2%. Also, the “Control effect (visual observation %)” value was found to be 38.3% in test [5] (setting [19]); 38.0% in test [5] (setting [20]); 6.8% in test [5] (setting [21]); 20.0% in test [5] (setting [22]); 62.6% in test [5] (setting [23]); 79.9% in test [5] (setting [24]). The “Control effect (visual observation %)” value in test [6] (setting [13]) came to 4.1%; in test [6] (setting [14]), 36.9%; in test [6] (setting [15]), 62.2%; in test [6] (setting [16]) it was 66.7%; in test [6] (setting [17]), 34.3%; in test [6] (setting [18]), 48.7%. Moreover, the “Control effect (visual observation %)” value in test [6] (setting [19]) is on record as 63.9%; in test [6] (setting [20]), 64.5%; in test [6] (setting [21]), 29.6%; in test [6] (setting [22]), 68.5%; in test [6] (setting [23]), 100%; in test [6] (setting [24]), 99.0%.
`CCOCN(C(=O)CCl)c1c(C)cccc1CC` [Acetochlor]: the “Measured value E” value amounted to 10% in test [1] (Table 3, dose 75 ga.i./hm^2); 35% in test [1] (Table 3, dose 150 ga.i./hm^2); 50% in test [2] (Table 3, dose 75 ga.i./hm^2); 75% in test [2] (Table 3, dose 150 ga.i./hm^2).

For the origin of these results see patent publication US20210112813A1, “HERBICIDAL COMPOSITION AND USE THEREOF” (NANTONG JIANGSHAN AGROCHEMICAL & CHEMICALS CO., LTD., priority 2019, published 2021).
